Assays:
[1] = test system: primary mouse hepatocytes; assay: Gene expression (Affymetrix Mouse Genome 430 2.0) in primary mouse hepatocytes, true vs false GTX, 24 h and 48 h; conditions: 48 h; log2, corrected for vehicle control
[2] = test system: primary mouse hepatocytes

## c1ccc2c(c1)cc1ccc3cccc4ccc2c1c34 [BaP, Benzo(a)pyrene]
[1]
  Gene expression AK007854 average: 1.6125
  Gene expression AK010447 average: −1.207
  Gene expression AK010738 average: 0.9112
  Gene expression AK014608 average: 1.245
  Gene expression AK017734 average: 0.7529
  Gene expression AK018383 average: 1.273
  Gene expression AK019979 average: −1.0966
  Gene expression AV095209 average: −0.7654
  Gene expression AV141095 average: −1.4056
  Gene expression AV173869 average: −1.924
  Gene expression AV216768 average: −1.447
  Gene expression AV219418 average: 1.558
  Gene expression AV221299 average: −1.169
  Gene expression AV246296 average: 1.1524
  Gene expression AV251625 average: 1.731
  Gene expression AV254764 average: 1.48
  Gene expression AV327248 average: 2.067
  Gene expression BB009155 average: 0.784
  Gene expression BB027848 average: 0.4738
  Gene expression BB043558 average: 1.692
  Gene expression BB046347 average: 0.7766
  Gene expression BB140436 average: −0.4572
  Gene expression BB204486 average: −1.5693
  Gene expression BB223872 average: 1.1634
  Gene expression BB246912 average: −1.54
  Gene expression BB275142 average: 1.0559
  Gene expression BB458460 average: −1.384
  Gene expression BB463610 average: 1.672
  Gene expression BB730977 average: 0.4218
  Gene expression BB743970 average: 1.51
  Gene expression BB770528 average: 0.7877
  Gene expression BB781615 average: 0.9271
  Gene expression BC003284 average: 0.7313
  Gene expression BC004827 average: −1.186
  Gene expression BC005552 average: −0.2121
  Gene expression BC006713 average: 0.4721
  Gene expression BC010318 average: −0.5529
  Gene expression BC012247 average: 1.477
  Gene expression BC012955 average: −0.9445
  Gene expression BC013893 average: 1.04
  Gene expression BC017615 average: −2.234
  Gene expression BC019379 average: −1.9807
  Gene expression BC019882 average: 2.16
  Gene expression BC021352 average: 0.7052
  Gene expression BC022148 average: 1.324
  Gene expression BC025169 average: −0.5114
  Gene expression BC026131 average: −1.045
  Gene expression BC027026 average: 1.379
  Gene expression BC027121 average: 1.345
  Gene expression BC027185 average: 0.7081
  Gene expression BE956581 average: 1.451
  Gene expression BF719766 average: 0.9507
  Gene expression BG065754 average: 0.9746
  Gene expression BG066491 average: −2.098
  Gene expression BG076151 average: 0.7599
  Gene expression BG076333 average: −0.4091
  Gene expression BG797099 average: 1.8809
  Gene expression BG967046 average: 0.5936
  Gene expression BI651416 average: 1.9573
  Gene expression BI966443 average: 1.3186
  Gene expression BM198879 average: 0.8089
  Gene expression BM200015 average: 1.0174
  Gene expression BM230508 average: 1.158
  Gene expression BM936480 average: 3.0213
  Gene expression BQ174991 average: −1.408
  Gene expression L21027 average: −1.779
  Gene expression NM_007556 average: −1.089
  Gene expression NM_007980 average: 1.753
  Gene expression NM_007987 average: 1.353
  Gene expression NM_008522 average: 2.9351
  Gene expression NM_008935 average: −1.4799
  Gene expression NM_009897 average: 1.182
  Gene expression NM_011075 average: 1.198
  Gene expression NM_011176 average: 1.4287
  Gene expression NM_011316 average: 0.8735
  Gene expression NM_012006 average: 2.867
  Gene expression NM_013642 average: −1.442
  Gene expression NM_013738 average: 0.9012
  Gene expression NM_013929 average: 1.062
  Gene expression NM_018881 average: 3.369
  Gene expression NM_019738 average: −2.586
  Gene expression NM_030697 average: 1.3687
  Gene expression NM_053122 average: −1.795
  Gene expression NM_134147 average: −1.2396
  Gene expression NM_134188 average: 0.2884
  Gene expression X62701 average: −1.2338
[2]
  Gene expression data AF204959 (Cyp3a25 /// LOC622249): 0.3057

Reference: patent publication US20120122727A1, “IN VITRO METHOD FOR PREDICTING WHETHER A COMPOUND IS GENOTOXIC IN VIVO” (priority 2009, published 2012)
